{"source": "PubChem BioAssay (NCI)", "assay_in_all_cases": "DTP human tumour cell line panel, 48 h", "key": {"[1]": {"tested_on": "786-0 renal"}, "[2]": {"tested_on": "A549 NSCLC"}, "[3]": {"tested_on": "COLO 205 colon"}, "[4]": {"tested_on": "DLD-1 colon"}, "[5]": {"tested_on": "DMS 114 small cell lung"}, "[6]": {"tested_on": "DMS 273 small cell lung"}, "[7]": {"tested_on": "EKVX NSCLC"}, "[8]": {"tested_on": "HCT-116 colon"}, "[9]": {"tested_on": "KM20L2 colon"}, "[10]": {"tested_on": "LXFL 529 NSCLC"}, "[11]": {"tested_on": "M19-MEL melanoma"}, "[12]": {"tested_on": "MALME-3M melanoma"}, "[13]": {"tested_on": "OVCAR-4 ovarian"}, "[14]": {"tested_on": "SF-295 CNS"}, "[15]": {"tested_on": "SK-OV-3 ovarian"}, "[16]": {"tested_on": "SNB-78 CNS"}, "[17]": {"tested_on": "SR leukemia"}, "[18]": {"tested_on": "NCI-H522 lung"}}, "note": "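Protocol summary: plate cells (96-well), add compound at 5 concentrations, incubate 48 h, interpolate endpoints linearly. TGI denotes the concentration required for complete inhibition of growth.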", "data": [{"smiles": "C/C(=C1/N=C(c2cc([N+](=O)[O-])ccc2Cl)N(c2ccc(Br)cc2)C1=O)c1ccc(N(CCC#N)CCC#N)cc1C", "values": [{"measurement": "TGI", "setting": "[1]", "value": "> 100", "unit": "µM"}, {"measurement": "TGI", "setting": "[2]", "value": 62.6, "unit": "µM"}, {"measurement": "TGI", "setting": "[3]", "value": 97, "unit": "µM"}, {"measurement": "TGI", "setting": "[4]", "value": 32.2, "unit": "µM"}, {"measurement": "TGI", "setting": "[5]", "value": 27.2, "unit": "µM"}, {"measurement": "TGI", "setting": "[6]", "value": 43.8, "unit": "µM"}, {"measurement": "TGI", "setting": "[7]", "value": "> 100", "unit": "µM"}, {"measurement": "TGI", "setting": "[8]", "value": 29.5, "unit": "µM"}, {"measurement": "TGI", "setting": "[9]", "value": "> 100", "unit": "µM"}, {"measurement": "TGI", "setting": "[10]", "value": "> 100", "unit": "µM"}, {"measurement": "TGI", "setting": "[11]", "value": 92.3, "unit": "µM"}, {"measurement": "TGI", "setting": "[12]", "value": "> 100", "unit": "µM"}, {"measurement": "TGI", "setting": "[13]", "value": "> 100", "unit": "µM"}, {"measurement": "TGI", "setting": "[14]", "value": "> 100", "unit": "µM"}, {"measurement": "TGI", "setting": "[15]", "value": "> 100", "unit": "µM"}, {"measurement": "TGI", "setting": "[16]", "value": "> 100", "unit": "µM"}, {"measurement": "TGI", "setting": "[17]", "value": 42.1, "unit": "µM"}]}, {"smiles": "CC(=O)NNc1nc(C)c(C(=O)NNC(=O)C(=O)Nc2ccc(Cl)c([N+](=O)[O-])c2)s1", "values": [{"measurement": "TGI", "setting": "[1]", "value": "> 100", "unit": "µM"}, {"measurement": "TGI", "setting": "[2]", "value": "> 100", "unit": "µM"}, {"measurement": "TGI", "setting": "[3]", "value": "> 100", "unit": "µM"}, {"measurement": "TGI", "setting": "[5]", "value": "> 100", "unit": "µM"}, {"measurement": "TGI", "setting": "[7]", "value": "> 100", "unit": "µM"}, {"measurement": "TGI", "setting": "[8]", "value": "> 100", "unit": "µM"}, {"measurement": "TGI", "setting": "[9]", "value": "> 100", "unit": "µM"}, {"measurement": "TGI", "setting": "[10]", "value": "> 100", "unit": "µM"}, {"measurement": "TGI", "setting": "[11]", "value": "> 100", "unit": "µM"}, {"measurement": "TGI", "setting": "[12]", "value": "> 100", "unit": "µM"}, {"measurement": "TGI", "setting": "[18]", "value": 79.5, "unit": "µM"}, {"measurement": "TGI", "setting": "[13]", "value": "> 100", "unit": "µM"}, {"measurement": "TGI", "setting": "[14]", "value": "> 100", "unit": "µM"}, {"measurement": "TGI", "setting": "[15]", "value": "> 100", "unit": "µM"}, {"measurement": "TGI", "setting": "[16]", "value": "> 100", "unit": "µM"}, {"measurement": "TGI", "setting": "[17]", "value": "> 100", "unit": "µM"}]}, {"smiles": "N#C/C(=C\\c1ccc(O)c(O)c1)c1c(C#N)c(N)nn1-c1ccccc1", "values": [{"measurement": "TGI", "setting": "[1]", "value": 21.1, "unit": "µM"}, {"measurement": "TGI", "setting": "[2]", "value": 39.3, "unit": "µM"}, {"measurement": "TGI", "setting": "[3]", "value": 61.1, "unit": "µM"}, {"measurement": "TGI", "setting": "[4]", "value": "> 100", "unit": "µM"}, {"measurement": "TGI", "setting": "[6]", "value": 18.5, "unit": "µM"}, {"measurement": "TGI", "setting": "[7]", "value": 69.7, "unit": "µM"}, {"measurement": "TGI", "setting": "[8]", "value": 19.6, "unit": "µM"}, {"measurement": "TGI", "setting": "[9]", "value": "> 100", "unit": "µM"}, {"measurement": "TGI", "setting": "[10]", "value": 92.5, "unit": "µM"}, {"measurement": "TGI", "setting": "[11]", "value": 94.6, "unit": "µM"}, {"measurement": "TGI", "setting": "[12]", "value": 26.8, "unit": "µM"}, {"measurement": "TGI", "setting": "[18]", "value": 13.2, "unit": "µM"}, {"measurement": "TGI", "setting": "[13]", "value": 38.7, "unit": "µM"}, {"measurement": "TGI", "setting": "[14]", "value": 47.7, "unit": "µM"}, {"measurement": "TGI", "setting": "[15]", "value": 36.5, "unit": "µM"}, {"measurement": "TGI", "setting": "[16]", "value": "> 100", "unit": "µM"}]}, {"smiles": "Clc1ccc(Nc2ncco2)cc1Cl", "values": [{"measurement": "TGI", "setting": "[1]", "value": "> 10", "unit": "µM"}, {"measurement": "TGI", "setting": "[2]", "value": "> 10", "unit": "µM"}, {"measurement": "TGI", "setting": "[3]", "value": "> 10", "unit": "µM"}, {"measurement": "TGI", "setting": "[7]", "value": "> 10", "unit": "µM"}, {"measurement": "TGI", "setting": "[8]", "value": "> 10", "unit": "µM"}, {"measurement": "TGI", "setting": "[12]", "value": "> 10", "unit": "µM"}, {"measurement": "TGI", "setting": "[18]", "value": "> 10", "unit": "µM"}, {"measurement": "TGI", "setting": "[13]", "value": "> 10", "unit": "µM"}, {"measurement": "TGI", "setting": "[14]", "value": "> 10", "unit": "µM"}, {"measurement": "TGI", "setting": "[15]", "value": "> 10", "unit": "µM"}, {"measurement": "TGI", "setting": "[17]", "value": "> 10", "unit": "µM"}]}, {"smiles": "Cc1ccc(C2(O)c3ccccc3C(=O)N(C)C2(O)c2ccc(C)cc2)cc1", "note": "(centres undefined)", "values": [{"measurement": "TGI", "setting": "[1]", "value": "> 100", "unit": "µM"}, {"measurement": "TGI", "setting": "[2]", "value": "> 100", "unit": "µM"}, {"measurement": "TGI", "setting": "[3]", "value": "> 100", "unit": "µM"}, {"measurement": "TGI", "setting": "[7]", "value": "> 100", "unit": "µM"}, {"measurement": "TGI", "setting": "[8]", "value": "> 100", "unit": "µM"}, {"measurement": "TGI", "setting": "[12]", "value": "> 100", "unit": "µM"}, {"measurement": "TGI", "setting": "[18]", "value": "> 100", "unit": "µM"}, {"measurement": "TGI", "setting": "[13]", "value": 50.9, "unit": "µM"}, {"measurement": "TGI", "setting": "[14]", "value": "> 100", "unit": "µM"}, {"measurement": "TGI", "setting": "[15]", "value": "> 100", "unit": "µM"}, {"measurement": "TGI", "setting": "[17]", "value": 13.2, "unit": "µM"}]}, {"smiles": "CN1C(=O)N(C)C2(CCN(CC(CC3OCCO3)c3ccc(F)cc3)CC2)C1=O", "note": "(centres undefined)", "values": [{"measurement": "TGI", "setting": "[1]", "value": "> 100", "unit": "µM"}, {"measurement": "TGI", "setting": "[2]", "value": "> 100", "unit": "µM"}, {"measurement": "TGI", "setting": "[3]", "value": "> 100", "unit": "µM"}, {"measurement": "TGI", "setting": "[7]", "value": "> 100", "unit": "µM"}, {"measurement": "TGI", "setting": "[8]", "value": "> 100", "unit": "µM"}, {"measurement": "TGI", "setting": "[12]", "value": "> 100", "unit": "µM"}, {"measurement": "TGI", "setting": "[18]", "value": "> 100", "unit": "µM"}, {"measurement": "TGI", "setting": "[13]", "value": "> 100", "unit": "µM"}, {"measurement": "TGI", "setting": "[14]", "value": "> 100", "unit": "µM"}, {"measurement": "TGI", "setting": "[15]", "value": "> 100", "unit": "µM"}, {"measurement": "TGI", "setting": "[17]", "value": "> 100", "unit": "µM"}]}, {"smiles": "O=c1oc2ccc([N+](=O)[O-])cc2nc1/C=C(\\O)c1ccccc1", "values": [{"measurement": "TGI", "setting": "[1]", "value": "> 100", "unit": "µM"}, {"measurement": "TGI", "setting": "[2]", "value": "> 100", "unit": "µM"}, {"measurement": "TGI", "setting": "[3]", "value": "> 100", "unit": "µM"}, {"measurement": "TGI", "setting": "[7]", "value": "> 100", "unit": "µM"}, {"measurement": "TGI", "setting": "[8]", "value": "> 100", "unit": "µM"}, {"measurement": "TGI", "setting": "[12]", "value": "> 100", "unit": "µM"}, {"measurement": "TGI", "setting": "[18]", "value": "> 100", "unit": "µM"}, {"measurement": "TGI", "setting": "[13]", "value": "> 100", "unit": "µM"}, {"measurement": "TGI", "setting": "[14]", "value": "> 100", "unit": "µM"}, {"measurement": "TGI", "setting": "[15]", "value": "> 100", "unit": "µM"}, {"measurement": "TGI", "setting": "[17]", "value": "> 100", "unit": "µM"}]}, {"smiles": "CCOC(=O)c1c(N2CCCC2)[nH]c(=O)c(C(c2c(O)c(C(=O)OCC)c(N3CCCC3)[nH]c2=O)C(C)C)c1O", "values": [{"measurement": "TGI", "setting": "[1]", "value": "> 100", "unit": "µM"}, {"measurement": "TGI", "setting": "[2]", "value": "> 100", "unit": "µM"}, {"measurement": "TGI", "setting": "[3]", "value": "> 100", "unit": "µM"}, {"measurement": "TGI", "setting": "[7]", "value": "> 100", "unit": "µM"}, {"measurement": "TGI", "setting": "[8]", "value": "> 100", "unit": "µM"}, {"measurement": "TGI", "setting": "[12]", "value": "> 100", "unit": "µM"}, {"measurement": "TGI", "setting": "[18]", "value": "> 100", "unit": "µM"}, {"measurement": "TGI", "setting": "[13]", "value": "> 100", "unit": "µM"}, {"measurement": "TGI", "setting": "[14]", "value": "> 100", "unit": "µM"}, {"measurement": "TGI", "setting": "[15]", "value": "> 100", "unit": "µM"}, {"measurement": "TGI", "setting": "[17]", "value": "> 100", "unit": "µM"}]}]}
